For twelve compounds, IC50 results are on record in US11447466B2, “Substituted indole compounds useful as inhibitors of TLR7/8/9” (BRISTOL-MYERS SQUIBB COMPANY, priority 2017, dated 2022).

Bounds are passed on as bounds.

Holding throughout (type): cell-based
The target in test [1] is T1, human TLR7 (Homo sapiens, UniProt Q9NYK1).
T1 construct: host or cells: HEK-Blue cells
T1 sequence (Q9NYK1 27-1049): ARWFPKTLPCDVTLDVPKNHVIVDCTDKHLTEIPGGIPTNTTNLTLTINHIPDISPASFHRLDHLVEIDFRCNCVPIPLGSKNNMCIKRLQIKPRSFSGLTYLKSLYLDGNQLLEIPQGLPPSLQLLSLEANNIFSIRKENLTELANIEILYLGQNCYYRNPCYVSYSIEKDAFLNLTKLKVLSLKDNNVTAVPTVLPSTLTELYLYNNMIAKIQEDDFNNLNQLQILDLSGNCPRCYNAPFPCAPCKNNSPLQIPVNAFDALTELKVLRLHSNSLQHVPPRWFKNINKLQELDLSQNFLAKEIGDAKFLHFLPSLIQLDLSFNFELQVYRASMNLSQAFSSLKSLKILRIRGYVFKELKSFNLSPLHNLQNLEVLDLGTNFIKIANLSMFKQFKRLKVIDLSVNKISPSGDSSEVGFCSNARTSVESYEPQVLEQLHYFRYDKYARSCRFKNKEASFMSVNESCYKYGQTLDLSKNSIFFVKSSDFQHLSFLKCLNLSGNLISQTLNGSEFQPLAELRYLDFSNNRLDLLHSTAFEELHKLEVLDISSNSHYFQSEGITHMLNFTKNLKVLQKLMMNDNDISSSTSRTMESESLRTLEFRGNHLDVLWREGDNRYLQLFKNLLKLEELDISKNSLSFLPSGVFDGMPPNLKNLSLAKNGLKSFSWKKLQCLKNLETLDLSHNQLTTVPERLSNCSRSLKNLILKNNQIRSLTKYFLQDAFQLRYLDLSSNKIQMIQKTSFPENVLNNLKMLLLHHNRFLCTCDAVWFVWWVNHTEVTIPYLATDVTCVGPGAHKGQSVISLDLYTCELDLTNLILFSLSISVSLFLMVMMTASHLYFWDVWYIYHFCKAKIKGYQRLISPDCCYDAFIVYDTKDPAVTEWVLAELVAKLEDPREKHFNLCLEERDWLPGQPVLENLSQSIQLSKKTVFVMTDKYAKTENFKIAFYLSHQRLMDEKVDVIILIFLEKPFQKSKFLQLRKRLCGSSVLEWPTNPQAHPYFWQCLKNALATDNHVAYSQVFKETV
As to the kind of experiment: TLR7 inhibition reporter assay (HEK-Blue SEAP reporter, gardiquimod stimulation). To be noted: HEK-Blue cells overexpressing human TLR7, SEAP reporter, gardiquimod 7.5 μM, 22 hour incubation. In a few lines: (§1)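 Compound treatment: 30 min, RT, 0.05 nM–50 μM final. Agonist: TLR7 gardiquimod 7.5 μM; TLR8 R848 15.9 μM; TLR9 ODN2006 5 nM. Incubation 22 h, 37 °C, 5% CO2. Readout SEAP, HEK-Blue Detection.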
On the technique in general: In a reporter assay the amount or activity of a reporter protein is the signal.

In test [2] the target is T2, human TLR8 (Homo sapiens, UniProt Q9NR97).
T2 construct: host or cells: HEK-Blue cells
T2 sequence (Q9NR97 27-1041): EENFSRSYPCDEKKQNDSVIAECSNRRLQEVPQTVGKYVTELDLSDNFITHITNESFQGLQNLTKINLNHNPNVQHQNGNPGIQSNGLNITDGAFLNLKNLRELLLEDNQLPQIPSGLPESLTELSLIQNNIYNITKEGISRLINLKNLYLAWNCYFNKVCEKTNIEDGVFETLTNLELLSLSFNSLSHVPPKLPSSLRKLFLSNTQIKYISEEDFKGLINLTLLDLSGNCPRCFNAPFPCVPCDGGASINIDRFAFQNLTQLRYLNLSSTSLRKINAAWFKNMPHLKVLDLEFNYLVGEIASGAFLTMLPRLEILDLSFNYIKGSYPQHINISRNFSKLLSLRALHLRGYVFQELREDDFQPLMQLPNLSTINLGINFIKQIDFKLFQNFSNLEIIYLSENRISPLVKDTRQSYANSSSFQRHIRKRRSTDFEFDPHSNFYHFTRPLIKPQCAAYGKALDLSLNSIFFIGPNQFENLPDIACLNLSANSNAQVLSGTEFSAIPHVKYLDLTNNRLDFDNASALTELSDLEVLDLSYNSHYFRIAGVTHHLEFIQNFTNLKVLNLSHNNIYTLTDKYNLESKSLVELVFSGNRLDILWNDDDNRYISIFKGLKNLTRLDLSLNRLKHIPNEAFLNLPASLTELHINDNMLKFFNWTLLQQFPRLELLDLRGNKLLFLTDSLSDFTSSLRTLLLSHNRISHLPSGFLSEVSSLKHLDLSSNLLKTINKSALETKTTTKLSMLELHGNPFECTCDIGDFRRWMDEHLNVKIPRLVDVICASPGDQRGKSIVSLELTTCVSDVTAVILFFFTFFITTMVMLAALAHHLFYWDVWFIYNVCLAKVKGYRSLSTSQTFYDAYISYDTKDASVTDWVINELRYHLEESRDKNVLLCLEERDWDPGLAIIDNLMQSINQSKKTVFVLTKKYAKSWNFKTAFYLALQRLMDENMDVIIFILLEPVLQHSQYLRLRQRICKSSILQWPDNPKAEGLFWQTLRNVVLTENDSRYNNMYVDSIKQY
As to the kind of experiment: TLR8 inhibition reporter assay (HEK-Blue SEAP reporter, R848 stimulation). As to conditions: HEK-Blue cells overexpressing human TLR8, SEAP reporter, R848 15.9 μM, 22 hour incubation. In short, it runs like this: as §1

Test [3] addresses T3, human TLR9 (Homo sapiens, UniProt Q9NR96).
T3 construct: host or cells: HEK-Blue cells
T3 sequence (Q9NR96 26-1032): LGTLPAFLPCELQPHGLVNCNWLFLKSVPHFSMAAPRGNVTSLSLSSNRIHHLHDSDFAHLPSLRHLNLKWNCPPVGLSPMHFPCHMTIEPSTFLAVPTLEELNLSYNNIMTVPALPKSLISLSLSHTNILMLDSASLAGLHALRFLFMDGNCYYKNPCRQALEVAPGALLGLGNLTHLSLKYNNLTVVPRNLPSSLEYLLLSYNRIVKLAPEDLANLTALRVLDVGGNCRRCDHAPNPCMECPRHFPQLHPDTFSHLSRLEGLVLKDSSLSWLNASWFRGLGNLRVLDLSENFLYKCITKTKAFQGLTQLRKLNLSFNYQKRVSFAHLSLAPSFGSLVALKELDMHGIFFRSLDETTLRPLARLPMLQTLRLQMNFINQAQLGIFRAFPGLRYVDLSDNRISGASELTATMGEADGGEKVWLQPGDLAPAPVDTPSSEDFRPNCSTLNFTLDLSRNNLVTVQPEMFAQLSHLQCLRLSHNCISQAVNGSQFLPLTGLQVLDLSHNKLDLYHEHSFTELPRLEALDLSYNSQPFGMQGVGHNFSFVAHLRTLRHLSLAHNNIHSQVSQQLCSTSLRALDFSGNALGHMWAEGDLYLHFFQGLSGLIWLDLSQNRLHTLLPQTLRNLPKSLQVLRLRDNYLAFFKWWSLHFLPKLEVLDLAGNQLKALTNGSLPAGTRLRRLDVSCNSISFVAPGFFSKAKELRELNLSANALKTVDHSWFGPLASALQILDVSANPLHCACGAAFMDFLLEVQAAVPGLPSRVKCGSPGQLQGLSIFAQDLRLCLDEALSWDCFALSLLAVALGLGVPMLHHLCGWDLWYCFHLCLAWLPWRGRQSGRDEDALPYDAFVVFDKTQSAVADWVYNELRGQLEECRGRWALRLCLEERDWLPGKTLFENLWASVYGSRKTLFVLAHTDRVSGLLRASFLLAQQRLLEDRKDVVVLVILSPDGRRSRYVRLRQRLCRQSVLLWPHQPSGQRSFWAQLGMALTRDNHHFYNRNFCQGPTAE
The test can be described thus: TLR9 inhibition reporter assay (HEK-Blue SEAP reporter, ODN2006 stimulation). As to conditions: HEK-Blue cells overexpressing human TLR9, SEAP reporter, ODN2006 5 nM, 22 hour incubation. In short, it runs like this:
as §1

By IC50 is commonly meant the concentration at which inhibition is half-maximal. A low value points to greater potency.

For the compound `Cc1cc(-c2[nH]c3ccc(C4CCNCC4)cc3c2C(C)C)cn(CC2CC2)c1=O` [Example 34, 1-(cyclopropylmethyl)-5-(3-isopropyl-5-(piperidin-4-yl)-1H-indol-2-yl)-3-methylpyridin-2(1H)-one], the IC50 in test [1] worked out at 7.1 nM; in test [2], 48 nM; in test [3], 1.46 µM.
For `Cc1cc(-c2[nH]c3ccc(C4CCN(C(=O)CN(C)C)CC4)cc3c2C(C)C)cn(CC(C)C)c1=O` [Example 285, 5-(5-(1-(dimethylglycyl)piperidin-4-yl)-3-isopropyl-1H-indol-2-yl)-1-isobutyl-3-methylpyridin-2(1H)-one] the same measures were 14.6 nM, 99.1 nM and 3.41 µM.
In the case of `CC(=O)NC1CCC(N2CCC(c3ccc4[nH]c(-c5cc(C)c(=O)n(C)c5)c(C(C)C)c4c3)CC2)CC1` (stereo not drawn) [Example 229, N-(4-(4-(2-(1,5-dimethyl-6-oxo-1,6-dihydropyridin-3-yl)-3-isopropyl-1H-indol-5-yl)piperidin-1-yl)cyclohexyl)acetamide], the IC50 in test [1] is 5.7 nM; in test [2], 4.2 nM; in test [3] it was not below 50 µM.
`CC(=O)N1CC(N2CCC(c3ccc4[nH]c(-c5cn(C)c(=O)c(Cl)c5C)c(C(C)C)c4c3)CC2)C1` [Example 174, 5-(5-(1-(1-acetylazetidin-3-yl)piperidin-4-yl)-3-isopropyl-1H-indol-2-yl)-3-chloro-1,4-dimethylpyridin-2(1H)-one]: the 50% inhibitory concentration (IC50) is 15.7 nM in test [1], 44.8 nM in test [2] and not below 50 µM in test [3].
On the same counts, the results for `Cc1c(-c2[nH]c3ccc(C4CCN(CC5CCOC5)CC4)cc3c2C(C)C)cn(C)c(=O)c1Cl` (stereo not drawn) [Example 252, 3-chloro-5-(3-isopropyl-5-(1-((tetrahydrofuran-3-yl)methyl)piperidin-4-yl)-1H-indol-2-yl)-1,4-dimethylpyridin-2(1H)-one] are 4.2 nM, 2.7 nM and 2.66 µM.
`CN[C@@H](C)C(=O)N1CCC(c2ccc3[nH]c(-c4cc(C)c(=O)n(C)c4)c(C(C)C)c3c2)CC1` [Example 297, 5-(3-isopropyl-5-(1-(methyl-L-alanyl)piperidin-4-yl)-1H-indol-2-yl)-1,3-dimethylpyridin-2(1H)-one]: the 50% inhibitory concentration (IC50) in test [1] amounted to 4.4 nM; in test [2], 5.5 nM; in test [3] it was 3.99 µM.
In the case of `Cc1c(-c2[nH]c3ccc(C4CCN(CC5COC5)CC4)cc3c2C(C)C)cn(C)c(=O)c1Cl` [Example 92, 3-chloro-5-(3-isopropyl-5-(1-(oxetan-3-ylmethyl)piperidin-4-yl)-1H-indol-2-yl)-1,4-dimethylpyridin-2(1H)-one], the half-inhibitory concentration (IC50) turned out to be 3.2 nM in test [1], 2.8 nM in test [2] and 8.51 µM in test [3].
In the case of `Cc1c(-c2[nH]c3ccc(C4CCN(C(=O)CN(C)C)CC4)cc3c2C(C)C)cn(C)c(=O)c1C` [Example 280, 5-(5-(1-(dimethylglycyl)piperidin-4-yl)-3-isopropyl-1H-indol-2-yl)-1,3,4-trimethylpyridin-2(1H)-one], the IC50 amounted to 6.1 nM in test [1], 9 nM in test [2] and 4.57 µM in test [3].
For `CC(C)c1c(-c2cc(-c3cncnc3)c(=O)n(C)c2)[nH]c2ccc(C3CCN(CCS(C)(=O)=O)CC3)cc12` [Example 108, 5-(3-isopropyl-5-(1-(2-(methylsulfonyl)ethyl)piperidin-4-yl)-1H-indol-2-yl)-1-methyl-3-(pyrimidin-5-yl) pyridin-2(1H)-one], the IC50 in test [1] was 32.8 nM; in test [2], 2 nM; in test [3] it was 7.54 µM.
On the same counts, the results for `Cc1c(-c2[nH]c3ccc(C4CCN(CCC(F)(F)F)CC4)cc3c2C(C)C)cn(C)c(=O)c1Cl` [Example 102, 3-chloro-5-(3-isopropyl-5-(1-(3,3,3-trifluoropropyl)piperidin-4-yl)-1H-indol-2-yl)-1,4-dimethylpyridin-2(1H)-one] are 33.2 nM, 32.4 nM and not below 50 µM.
For the compound `CC(=O)Nc1cccc(-c2cc(-c3[nH]c4ccc(C5CCNCC5)cc4c3C(C)C)cn(C)c2=O)c1` [Example 60, N-(3-(5-(3-isopropyl-5-(piperidin-4-yl)-1H-indol-2-yl)-1-methyl-2-oxo-1,2-dihydropyridin-3-yl)phenyl)acetamide], the values for the 50% inhibitory concentration (IC50) in test [1], in test [2] and in test [3] were 90.3 nM, 211 nM and 3.06 µM, respectively.
For `Cc1c(-c2[nH]c3ccc(C4CCN(CC(C)(C)O)CC4)cc3c2C(C)C)cn(C)c(=O)c1C` [Example 315, 5-(5-(1-(2-hydroxy-2-methylpropyl)piperidin-4-yl)-3-isopropyl-1H-indol-2-yl)-1,3,4-trimethylpyridin-2(1H)-one], the IC50 was 6.7 nM in test [1], 1.8 nM in test [2] and 4.94 µM in test [3].
